Measured values: publication PMC9881143 (2023)

Assays:
[1] = tested on: THF-II-lotiTL (RNA, riboswitch) GGCGUGGUCCGUUCAACUCGUUCCUCGAAAGAGGAACUACGGGAGACGCC; test: X-ray crystallography; conditions: co-crystal, 0.1 M sodium citrate pH 6.5, 1.5-2.5 M ammonium sulfate, 16 °C; RNA:ligand 1:5
[2] = tested on: THF-II-lotiTL U44A mutant (RNA, riboswitch) GGCGUGGUCCGUUCAACUCGUUCCUCGAAAGAGGAACAACGGGAGACGCC; test: ITC; conditions: K+ 100 mM, Mg2+ (concentration not stated for this titration); 20 mM Tris-HCl pH 7.5, 1 mM TCEP, 25 °C; 0.75 mM ligand in syringe into 30 μM RNA
[3] = tested on: THF-II-lotiTL C22G mutant (THF-II-lotiTL-C22G) (RNA, riboswitch) GGCGUGGUCCGUUCAAGUCGUUCCUCGAAAGAGGAACUACGGGAGACGCC; test: ITC; conditions: K+ 100 mM, Mg2+ (concentration not stated for this titration); 20 mM Tris-HCl pH 7.5, 1 mM TCEP, 25 °C; 0.75 mM ligand in syringe into 30 μM RNA
[4] = tested on: THF-II-lotiTL C22U mutant (RNA, riboswitch) GGCGUGGUCCGUUCAAUUCGUUCCUCGAAAGAGGAACUACGGGAGACGCC; test: ITC; conditions: K+ 100 mM, Mg2+ (concentration not stated for this titration); 20 mM Tris-HCl pH 7.5, 1 mM TCEP, 25 °C; 0.75 mM ligand in syringe into 30 μM RNA
[5] = tested on: THF-II-lotiTL U44C mutant (RNA, riboswitch) GGCGUGGUCCGUUCAACUCGUUCCUCGAAAGAGGAACCACGGGAGACGCC; test: ITC; conditions: K+ 100 mM, Mg2+ (concentration not stated for this titration); 20 mM Tris-HCl pH 7.5, 1 mM TCEP, 25 °C; 0.75 mM ligand in syringe into 30 μM RNA

In the case of Nc1nc2[nH]ccc2c(=O)[nH]1, the binding [1] is reported as “yes”.

With Nc1nc2c(c(=O)[nH]1)N[C@@H](CNc1ccc(C(=O)N[C@@H](CCC(=O)O)C(=O)O)cc1)CN2 the binding [2] was “no”, the binding [3] was “no” and the binding [4] was “no”. The binding [5] was “no”.

In the case of Nc1nc2c(c(=O)[nH]1)N=C([C@H](O)[C@H](O)CO)CN2, the binding [1] is reported as “yes”.

In the case of C[C@H](O)[C@H](O)[C@H]1CNc2nc(N)[nH]c(=O)c2N1, the binding [1] is reported as “yes”.
